Columns and labels:
CD73 [1] = target: T1, CD73 (Homo sapiens, UniProt P21589); assay: CD73 Cellular Assay; type: cell-based; set-up: 40 μL of MDA-MB-231 cells (ATCC, HTB-26, breast cancer); host or cells: MDA-MB-231; details: MDA-MB-231 cells; 200 μM AMP working solution; 45 min at 37° C.; malachite readout; read-out: Cellular IC50 against CD73
T1 sequence (P21589 27-574): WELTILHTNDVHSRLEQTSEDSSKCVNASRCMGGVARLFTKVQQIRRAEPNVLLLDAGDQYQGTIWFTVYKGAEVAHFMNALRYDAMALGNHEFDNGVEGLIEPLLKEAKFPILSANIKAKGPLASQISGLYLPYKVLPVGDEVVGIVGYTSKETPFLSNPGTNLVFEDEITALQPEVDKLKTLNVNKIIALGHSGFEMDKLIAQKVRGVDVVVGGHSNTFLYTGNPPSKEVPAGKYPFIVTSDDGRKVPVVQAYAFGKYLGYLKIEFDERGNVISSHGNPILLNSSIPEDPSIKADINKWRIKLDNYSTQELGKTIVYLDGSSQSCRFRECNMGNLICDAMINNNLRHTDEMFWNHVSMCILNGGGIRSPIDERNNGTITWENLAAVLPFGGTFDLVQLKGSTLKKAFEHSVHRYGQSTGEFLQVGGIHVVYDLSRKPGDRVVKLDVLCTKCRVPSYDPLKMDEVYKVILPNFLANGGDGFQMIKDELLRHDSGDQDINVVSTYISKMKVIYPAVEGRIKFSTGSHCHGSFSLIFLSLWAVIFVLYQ
Experimental: Compound serial dilution (1:3) was prepared with Echo 555 liquid handler (Labcyte) into the corresponding wells of a 384-well plate. 40 μL of MDA-MB-231 cells (ATCC, HTB-26, breast cancer, final concentration at 20,000 cells/mL) suspended in assay buffer (20 mM HEPES pH 7.4, 137 mM NaCl, 5.4 mM KCl, 1.3 mM CaCl2, 4.2 mM NaHCO3, 1 mg/mL glucose) were added into the corresponding wells of the plate. After incubating with compounds for 30 minutes, 40 μL of AMP working solution (200 μM AMP in assay buffer) was added into each well in the assay plate. The assay plate was then incubated in a 5% CO2 incubator (Thermo Fisher Scientific) at 37° C. for 45 min. After the reaction was completed, 50 μL of the supernatants was collected and transferred into a new 384 well plate. 10 μL of Malachite A was added to each well in the assay plate and incubated for 10 minutes. 10 μL of Malachite B was then added to each corresponding well of the plate and incubated for 30 minutes. Finally the absorbance value was read on the Envision plate reader at […]. Calculation percentage inhibition by using equation {% inhibition=100×[1−(X−MIN)/(MAX−MIN)]} where X equals to the well signal, Max equals signal of neutral control and MIN equals signal of inhibitor control.

CD73 [2] = target: T1, CD73; assay: Human CD73 Biochemical Assay; details: 0.05 nM recombinant CD73; AMP 5.56 μM final; 10 min at room temperature; LC/MS adenosine readout; read-out: Enzymatic IC50 against human CD73
Experimental: The purpose of this assay is to identify and characterize inhibitors of human CD73 enzymatic activity. Compound serial dilution (1:3) was prepared with Echo 555 liquid handler (Labcyte) into the corresponding wells of a 384-well plate. 10 μL of enzyme working solution (containing 0.05 nM recombinant CD73 protein, 10 mM Tris pH 7.5, 100 mM NaCl, 0.01% BSA, 0.2 mM Octyl glucoside and 1 mM NaH2PO4) was added to the assay plate and incubated with compounds for 15 minutes at room temperature. After adding 15 μL of AMP working solution (Containing 10 mM Tris pH 7.5, 100 mM NaCl, 0.01% BSA, 0.2 mM Octyl glucoside, with 5.56 μM of AMP final concentration) and incubate for 10 min at room temperature. Stop the reaction by adding 75 μL of stop solution (5% TCA in H2O containing 250 nM 13C5-adenosine) to each well for 10 min incubation. After centrifugation, 75 μL of the mixture was transferred to a new 384-well plate for LC/MS analysis.
Samples from the 384-well plates, were loaded onto an autosampler deck, then injected with ADDA-LC-MS/MS. The aqueous mobile phase is 0.1% formic acid in water. The organic mobile phase is 0.1% formic acid in acetonitrile. Flow rate is maintained at 0.8 mL/minute using Shimadzu pumps. The column is ACE 5 Phenyl, 50×2.1 mm. The analysis was performed on a SCIEX triple quadrupole mass spectrometer operating in positive ion mode. The effluent from the HPLC column was directly introduced into the electrospray ionization (ESI). Multiple reaction monitoring (MRM) is used to determine analyte and internal standard (IS) responses. The MRM for adenosine is 268.1/136.1, for 13C5-Adenosine (IS) is 273.2/136.2. The data is calculated using the peak area ratio (PAR) semi-quantitative method.

CD8+ T cells = assay: T Cell Proliferation Assay: CD8+ T cell proliferation; type: cell-based; details: high AMP condition (200 μM AMP, 5 μM EHNA), CD3/CD28 beads, 72 hours, read-out: CD8+ T cell proliferation EC50 (rescue of proliferation)
Experimental: (§1) The purpose of this assay is to characterize the potency of inhibitors of CD73 in rescuing adenosine-mediated inhibition of T cell proliferation. CD4+ or CD8+ T cells were isolated from peripheral blood mononuclear cells (PBMCs, HemaCare) by immunomagnetic negative selection using EasySep™ Isolation Kit (STEMCELL Technologies) following the supplier's protocol. Pan T cells were pelleted by centrifugation at 300 gravitational force (g) for 5 minutes at room temperature and re-suspended in PBS. CellTrace™ Violet staining solution (Invitrogen) was added at 1:5,000 and incubated at 37° C. for 20 minutes, protected from light. Complete culture medium [RPMI-1640 (Gibco), 10% Fetal Bovine Serum (Gibco), 2 mM GlutaMAX (Gibco) and 1 mM Sodium Pyruvate (Gibco), 100 U/mL Penicillin-Streptomycin (Gibco) and MEM non-essential amino acids (NEAA) cell culture supplement (1:100, Gibco)] was then added, mixed, and incubated at 37° C. for 5 minutes. Cells were then pelleted by centrifugation at 300 g for 5 minutes at room temperature and re-suspended in fresh, pre-warmed complete culture medium. 50 μL of cells were seeded per well in 96 well u-bottom plates. 50 μL of CD3/CD28 beads-containing medium and 50 μL of media containing compounds were added into cells. 50 μL of media containing AMP and EHNA hydrochloride (Sigma-Aldrich) was added into cells at 200 μM and 5 μM final concentration, respectively. Cells were incubated for 72 hours at 37° C. in a 5% CO2 incubator. 200 μL of PBS was then added to each well and cells were centrifuged at 300 g, 4° C. for 10 minutes. The supernatant was discarded. 50 μL of Human TruStain FcX™ (Fc Receptor Blocking Solution, BioLegend) diluted 1:100 in PBS was added to each well, mixed gently and incubated for 20 minutes at 4° C. 50 μL of staining solution (BioLegend) was added to each well, mixed gently and incubated at 4° C. for 30 minutes. Cells were centrifuged at 300 g, 4° C. for 10 minutes and the supernatant was discarded. The cell pellets were washed with 250 μL of cell staining buffer and centrifuged at 300 g, 4° C. for 10 minutes. The supernatant was discarded and cells were re-suspended in 60 μL of cell staining buffer and analyzed on a flow cytometer.

CD4+ T cells = assay: T Cell Proliferation Assay: CD4+ T cell proliferation; type: cell-based; details: Homo sapiens, high AMP condition (200 μM AMP, 5 μM EHNA), CD3/CD28 beads, 72 hours, read-out: CD4+ T cell proliferation EC50 (rescue of proliferation)
Experimental: as §1

| Structure (SMILES) | IC50 (CD73 [1]) [nM] | IC50 (CD73 [2]) [nM] | EC50 (CD8+ T cells) [nM] | EC50 (CD4+ T cells) [nM] |
| --- | --- | --- | --- | --- |
| Cn1nc(O[C@H](c2ccnc(OCC(F)(F)F)c2)C(F)F)c2cc(-c3c[nH]c(=O)[nH]c3=O)nnc21 [Example 10, 5-[3-[(1R)-2,2-difluoro-1-[2-(2,2,2-trifluoroethoxy)-4-pyridyl]ethoxy]-1-methyl-pyrazolo[3,4-c]pyridazin-5-yl]-1H-pyrimidine-2,4-dione] | 0.55 | 0.06 | 0.08 | 0.14 |
| Cn1nc(O[C@H](c2ccnc(COCC(F)(F)F)c2)C(F)F)c2cc(-c3c[nH]c(=O)[nH]c3=O)nnc21 [Example 34, 5-[3-[(1R)-2,2-difluoro-1-[2-(2,2,2-trifluoroethoxymethyl)-4-pyridyl]ethoxy]-1-methyl-pyrazolo[3,4-c]pyridazin-5-yl]-1H-pyrimidine-2,4-dione] | 0.42 | 0.07 | 0.11 | 0.1 |
| Cn1nc(O[C@H](c2ccnc(OCC(F)(F)F)c2)C(F)F)c2cc(-c3n[nH]c(=O)[nH]c3=O)nnc21 [Example 12, 6-[3-[(1R)-2,2-difluoro-1-[2-(2,2,2-trifluoroethoxy)-4-pyridyl]ethoxy]-1-methyl-pyrazolo[3,4-c]pyridazin-5-yl]-2H-1,2,4-triazine-3,5-dione] | 0.67 | 0.02 | 0.12 | 0.15 |
| Cn1nc(O[C@H](c2ccc3cnn(CC(F)(F)F)c3c2)C(F)F)c2cc(-c3c[nH]c(=O)[nH]c3=O)nnc21 [Example 24, 5-[3-[(1R)-2,2-difluoro-1-[1-(2,2,2-trifluoroethyl)indazol-6-yl]ethoxy]-1-methyl-pyrazolo[3,4-c]pyridazin-5-yl]-1H-pyrimidine-2,4-dione] | 0.44 | 0.05 | 0.23 | 0.19 |
| Cn1nc(O[C@H](c2cc(OCC(F)(F)F)ncn2)C(F)F)c2cc(-c3c[nH]c(=O)[nH]c3=O)nnc21 (single isomer, unassigned) [Example 35A] | 0.59 | 0.06 | 0.32 | 0.3 |
| Cn1nc(O[C@H](c2ccnc(COC3CC3)c2)C(F)F)c2cc(-c3c[nH]c(=O)[nH]c3=O)nnc21 [Example 2, 5-[3-[(1R)-1-[2-(cyclopropoxymethyl)-4-pyridyl]-2,2-difluoro-ethoxy]-1-methyl-pyrazolo[3,4-c]pyridazin-5-yl]-1H-pyrimidine-2,4-dione] | 0.21 | 0.07 | 0.17 | 0.18 |
| C[C@H](Nc1cc([C@@H](Oc2nn(C)c3nnc(-c4c[nH]c(=O)[nH]c4=O)cc23)C(F)F)ccn1)C(F)(F)F [Example 26, 5-[3-[(1R)-2,2-difluoro-1-[2-[[(1S)-2,2,2-trifluoro-1-methyl-ethyl]amino]-4-pyridyl]ethoxy]-1-methyl-pyrazolo[3,4-c]pyridazin-5-yl]-1H-pyrimidine-2,4-dione] | 0.27 | 0.04 | 0.09 | 0.08 |
| Cn1nc(O[C@H](c2cc(OC3CC(F)(F)C3)ncn2)C(F)F)c2cc(-c3c[nH]c(=O)[nH]c3=O)nnc21 [Example 42A, 5-[3-[(1R)-1-[6-(3,3-difluorocyclobutoxy)pyrimidin-4-yl]-2,2-difluoro-ethoxy]-1-methyl-pyrazolo[3,4-c]pyridazin-5-yl]-1H-pyrimidine-2,4-dione] | 0.76 | 0.06 | 0.18 | 0.22 |
| Cn1nc(O[C@H](c2ccnc(C3CC(F)(F)C3)c2)C(F)F)c2cc(-c3c[nH]c(=O)[nH]c3=O)nnc21 [Example 38, 5-[3-[(1R)-1-[2-(3,3-difluorocyclobutyl)-4-pyridyl]-2,2-difluoro-ethoxy]-1-methyl-pyrazolo[3,4-c]pyridazin-5-yl]-1H-pyrimidine-2,4-dione] | 0.36 | 0.06 | 0.07 | 0.06 |
| Cn1nc(O[C@H](c2cc(OCC(F)(F)F)ccn2)C(F)F)c2cc(-c3c[nH]c(=O)[nH]c3=O)nnc21 [Example 4, 5-[3-[(1R)-2,2-difluoro-1-[4-(2,2,2-trifluoroethoxy)-2-pyridyl]ethoxy]-1-methyl-pyrazolo[3,4-c]pyridazin-5-yl]-1H-pyrimidine-2,4-dione] | 0.49 | 0.07 | 0.22 | 0.18 |
| Cn1nc(O[C@H](c2ccnc(OCC(F)F)c2)C(F)F)c2cc(-c3c[nH]c(=O)[nH]c3=O)nnc21 [Example 11B, 5-[3-[(1R)-1-[2-(2,2-difluoroethoxy)-4-pyridyl]-2,2-difluoro-ethoxy]-1-methyl-pyrazolo[3,4-c]pyridazin-5-yl]-1H-pyrimidine-2,4-dione] | 0.72 | 0.05 | 0.29 | 0.24 |
